Article PMC4387272, “Pharmacokinetic, pharmacodynamic and biomarker evaluation of transforming growth factor-β receptor I kinase inhibitor, galunisertib, in phase 1 study in patients with advanced cancer” (Investigational new drugs, 2014)
Where two headings read alike, the source gives them in different places.

Assay: Non-compartmental plasma pharmacokinetics of galunisertib in patients (LC-MS/MS)
Format: in vivo, Human
Settings: for Cmax / AUC(0-inf): po
Procedure: Human plasma samples obtained during this study were analyzed at PharmaNet USA, Inc. Princeton, New Jersey, USA. The samples were analyzed for galunisertib levels using 2 validated liquid chromatography with tandem mass spectrometry methods. For the high-range method (PharmaNet USA, Inc. SOP TM.589), the lower limit of quantification was 5.000 ng/mL and the upper limit of quantification was 1000.000 ng/mL. The intra-assay accuracy (% relative error) during validation ranged from 1.800 to 10.222 %. The intra-assay precision (% relative standard deviation) during validation ranged from 3.119 to 18.389 %. Samples above the limit of quantification were diluted to yield results within the calibrated range. Samples below the lower limit of quantification using the high-range method were reanalyzed using the low-range method. For the low-range method (PharmaNet USA, Inc. SOP TM.563), the lower limit of quantification was 0.050 ng/mL and the upper limit of quantification was 10.000 ng/mL. The intra-assay accuracy during validation ranged from −5.080 to −2.000 %. The intra-assay precision during validation ranged from 4.404 to 12.245 %.
All patients who received at least 1 dose of galunisertib and had samples collected were subjected to PK analyses. The PK parameters for galunisertib were computed by standard non-compartmental methods of analysis using Win Nonlin Professional Edition (version 5.3) on a computer that met or exceeded the minimum system requirements for this program with appropriate and validated software. The parameters reported from the non-compartmental analyses included the maximum plasma concentration (Cmax), area under the curve from zero to 24 h (AUC(0–24)), AUC from zero time to infinity (AUC(0–∞)), half-life volume of distribution (Vd) and clearance (CL).
Clinical benefit in this study has been defined as a patient with either a complete response (CR), partial response (PR), and stable disease (SD) ≥6 cycles. MAIP results from plasma samples taken at baseline were compared between patients completing >6 cycles and ≤6 cycles using ANOVA. The analysis included controlling the false discovery rate to 30 % using the Benjamini-Hochberg method. Boxplots showing the distributions at baseline of the potentially prognostic markers are provided. Observed TGF-β-stimulated pSMAD2 (pSMAD2^+) in PBMCs was normalized by TGF-β-stimulated tSMAD2 [(tSMAD2^+) ^0.6[9, 10]] prior to determining the minimum normalized pSMAD2^+ and calculating percentage inhibition post-baseline for each patient. Baseline and minimum post-baseline values for each patient together with maximum percentage inhibition are presented on a line and scatter plot for each patient in Cohort 3 and summary statistics by time point provided from a standard mixed effects regression model, fitting log normalized pSMAD2^+ to the fixed effects of log baseline normalized pSMAD2^+, nominal time point, dose and their interaction and patient as a random effect.
• Part A (Fig. 1 and Table 2): Non-compartmental PK analysis was performed on 37 of the 39 patients treated in Part A: n=3 in Cohort 1 (40 mg/day); n=4 in Cohort 2 (80 mg/day); n=15 in Cohort 3 (160 mg/day); n=6 in Cohort 4 (240 mg/day); n=9 in Cohort 5 (300 mg/day). […] The terminal half-life was approximately 8 h. At steady state, on Day 14, the median time to maximum concentration (tmax,ss) ranged from 0.5 to 2 h post dose, independent of dose. Formal assessment of time-linear kinetics was not possible, regardless of whether or not the observed exposures of AUC(0–∞) Day 1 and AUC(0–∞) Day 14 were similar. […] Both the maximum observed plasma concentration at steady state (Cmax,ss) and exposure increased with dose as indicated from the statistical analysis of the PK parameters. […] A population PK model was developed based on data in Cohorts 1 through 5 [7]. […] PK profiles of galunisertib following administration of 160 mg/day (Cohort 6) and 300 mg/day (Cohort 7) on Days 6 and 7 were similar.

[1] = Part A, 240 mg/day oral BID, day 14 steady state, Cycle 2, individual patients
[2] = Part A, 7.5-fold dose range, power model

With `Cc1cccc(-c2nn3c(c2-c2ccnc4ccc(C(N)=O)cc24)CCC3)n1` [galunisertib] the “AUC0,∞ individual parameters (n <3)” value [1] was 2500- ^a ng*h/mL, the “Cmax, ss individual parameters (n <3)” value [1] was 610- ^a ng/mL and the “PK profile in patients on enzyme-inducing anti-epileptic medication versus other patients” value (Part A, 3 patients (2 in Cohort 3, 1 in Cohort 4)) was “do not appear to differ”. For the same compound, the “accumulation over the 14-day BID dosing regimen” value (Part A, 5 cohorts) was “no accumulation”, the “estimated ratio of geometric means for AUC(0-∞) between 40 and 300 mg daily” value [2] was 5.61 and the “estimated ratio of geometric means for Cmax,ss between 40 and 300 mg daily” value [2] was 3.99. For the same compound, the “PK profile with co-administration of proton pump inhibitors” value (Part A, 14 patients on PPI, Day 14) was “do not appear to be altered”, the “fold increase of AUC(0–∞) for a doubling of dose” value (Part A, 40–300 mg, power model) was 1.81 fold and the “fold increase of Cmax,ss for a doubling of dose” value (Part A, 40–300 mg, power model) was 1.61 fold. The “duration of measurable plasma concentrations” value (Part A, oral, patients) was “at least 48 h”, the “effect of co-administration of lomustine on galunisertib PK profile” value (Part B, 160 mg/day and 300 mg/day, Days 6 and 7) was “did not appear to alter” and the “dose proportionality of PK” value (any doubling of dose within 40–300 mg, particularly AUC(0-∞)) was “dose-proportional PK”. The Tmax (human, plasma, oral, Part A, steady state, Day 14, post dose, independent of dose, read-out: median time to maximum concentration (tmax,ss)) was 1800 to 7200 s, the Cmax (human, plasma, 40 mg/day, Part A, 40 mg/day oral BID, day 14 steady state, Cycle 1, patients, read-out: Cmax, ss mean (% CV)) was 220 ng/mL and the Cmax (human, plasma, 80 mg/day, Part A, 80 mg/day oral BID, day 14 steady state, Cycle 1, patients, read-out: Cmax, ss mean (% CV)) was 350 ng/mL. For the same compound, the AUC(0-inf) (human, plasma, 160 mg/day, Part A, 160 mg/day oral BID, day 14 steady state, Cycle 1, patients, read-out: AUC0,∞ mean (% CV)) was 2140 ng·h/mL, the Cmax (human, plasma, 160 mg/day, Part A, 160 mg/day oral BID, day 14 steady state, Cycle 1, patients, read-out: Cmax, ss mean (% CV)) was 630 ng/mL and the AUC(0-inf) (human, plasma, 160 mg/day, Part A, 160 mg/day oral BID, day 14 steady state, Cycle 2, patients, read-out: AUC0,∞ mean (% CV)) was 2430 ng·h/mL. For the same compound, the Cmax (human, plasma, 160 mg/day, Part A, 160 mg/day oral BID, day 14 steady state, Cycle 2, patients, read-out: Cmax, ss mean (% CV)) was 790 ng/mL, the AUC(0-inf) (human, plasma, 240 mg/day, Part A, 240 mg/day oral BID, day 14 steady state, Cycle 1, patients, read-out: AUC0,∞ mean (% CV)) was 3060 ng·h/mL and the Cmax (human, plasma, 240 mg/day, Part A, 240 mg/day oral BID, day 14 steady state, Cycle 1, patients, read-out: Cmax, ss mean (% CV)) was 660 ng/mL. It also gave an AUC(0-inf) (human, plasma, 240 mg/day, Part A, 240 mg/day oral BID, day 14 steady state, Cycle 2, individual patients, read-out: AUC0,∞ individual parameters (n <3)) of 2900 ng·h/mL, a Cmax (human, plasma, 240 mg/day, Part A, 240 mg/day oral BID, day 14 steady state, Cycle 2, individual patients, read-out: Cmax, ss individual parameters (n <3)) of 520 ng/mL and an AUC(0-inf) (human, plasma, 300 mg/day, Part A, 300 mg/day oral BID, day 14 steady state, Cycle 1, patients, read-out: AUC0,∞ mean (% CV)) of 3730 ng·h/mL. For the same compound, the Cmax (human, plasma, 300 mg/day, Part A, 300 mg/day oral BID, day 14 steady state, Cycle 1, patients, read-out: Cmax, ss mean (% CV)) was 990 ng/mL, the AUC(0-inf) (human, plasma, 300 mg/day, Part A, 300 mg/day oral BID, day 14 steady state, Cycle 2, patients, read-out: AUC0,∞ mean (% CV)) was 2930 ng·h/mL and the Cmax (human, plasma, 300 mg/day, Part A, 300 mg/day oral BID, day 14 steady state, Cycle 2, patients, read-out: Cmax, ss mean (% CV)) was 800 ng/mL. The half-life (human, plasma, Part A, oral, patients, read-out: terminal half-life (converted)) was about 480 min, the “between-patient coefficient of variation for AUC(0-∞) at steady state” value (pooled across the 5 cohorts) was 42% and the “between-patient coefficient of variation for Cmax,ss” value (pooled across the 5 cohorts) was 55%. The “within-patient coefficient of variation for AUC(0-∞) at steady state” value (pooled across the 5 cohorts) was 29% and the “within-patient coefficient of variation for Cmax,ss” value (pooled across the 5 cohorts) was 31%.
